Series [1] concerns IFNβ promoter. Description: Luciferase reporter assay, IFNβ promoter. In kind it is cell-based. The settings on record: stably transfected human cells, 18-20 hours with compound, FIG. 1A. How it is done:
(§1) Luciferase Assay to Identify Active Compounds. Cultured human cells that were stably transfected with luciferase reporter gene driven by RIG-I responsive promoter (IFNβ, ISG56, or ISG54 promoter) were seeded and allowed to grow overnight. The compound “KIN2000” was then added and cells were grown in the presence of KIN2000 for 18-20 hours. Steady-Glo luciferase substrate (Promega) was added and luminescence was read on a luminometer (Berthold).
For orientation: Reporter assays use an easily measured gene product as a stand-in for the process of interest.

For series [2], the system named is ISG56 promoter. In words: Luciferase reporter assay, ISG56 promoter. The settings on record: stably transfected human cells, 18-20 hours with compound, FIG. 1A. In kind it is cell-based. Here is the method: as §1
For series [3], the system named is ISG54 promoter. In words: Luciferase reporter assay, ISG54 promoter. In kind it is cell-based. The settings on record: stably transfected human cells, 18-20 hours with compound, FIG. 1A. How it is done:
as §1

Series [4] deals with β-actin promoter. In words: Actin counterscreen (β-actin-luciferase reporter). The format is cell-based, human. To be noted: specificity counterscreen, FIG. 1B. For orientation: A counterscreen serves to expose hits that act by an unwanted route or on another target.
Series [5] concerns HeLa cells. Description: MTS assay to determine cytotoxicity. In kind it is cell-based, human. To be noted: 48 hours, 0, 1, 5, 10 and 20 μM, FIG. 1C. How it is done:
MTS Assay to Determine Cytotoxicity. Cultured human HeLa cells were treated with increasing amounts of compound or equivalent amounts of DMSO diluted in media for 48 hours to see their effect on cell viability. The proportion of viable cells was calculated using a cell viability assay that measures conversion of a tetrazolium compound (3-(4,5-dimethyl-2-yl)-5-(3-carboxymethoxyphenyl)-2-(4-sulfophenyl)-2H-tetrazolium, inner salt; the MTS assay) to a colored formazan compound in live cells. The conversion of MTS to formazan was detected in a 96-well microtiter plate reader, and the resulting optical densities could then be plotted directly to estimate cell viability. CELLTITER 96® AQueous One Solution Cell (Promega) was the one-step assay used, according to the manufacturer's protocol, and cells were incubated for three hours in the presence of reagent before O.D. reading was done. KIN2000 was diluted to final concentrations of 0, 1, 5, 10, and 20 μM in media containing 0.5% DMSO. Negative control wells contained no compound, and positive control for cytotoxicity was examined using an EMCV infection which causes 100% cytopathic effect. Each compound concentration and control was done in triplicate wells.

The subject of series [6] is IRF-3. Description: Immunofluorescent cytochemistry assay, IRF-3 activation and translocation to the nucleus. The format is cell-based, human. The settings on record: U2OS cells (method) / HeLa cells (figure legend), 20 hours, increasing amounts, FIG. 2A. Here is the method: Immunofluorescent Cytochemistry Assay to Determine IRF-3 Activation and Translocation to the Nucleus.
The induction of ISG expression mediated by RIG-I is conferred by phosphorylation, dimerization, and nuclear translocation of the IRF-3 transcription factor. Cultured human U2OS cells were treated with increasing amounts of compound or equivalent amounts of DMSO diluted in media for 20 hours. Positive control wells were infected with 100 HA/mL Sendai virus for an equivalent time period. IRF-3 was detected using polyclonal rabbit serum specific to IRF-3 and a secondary antibody conjugated to DYLIGHT™ 488.
(§2) Quantification of Immunofluorescent Assays.
(§3) 96-well plates containing cultured human cells treated with compound and stained for either IRF-3 or NFκB were scanned and quantified using the ARRAYSCAN® instrument and software (Cellomics). Activation of transcription factor is evidenced by increased nuclear intensity normalized for cytoplasmic intensity, or nuclear-cytoplasmic difference.

The test system of series [7] is NFκB. In words: Immunofluorescent cytochemistry assay, NFκB activation. In kind it is cell-based, human. To be noted: HeLa cells, 20 hours, increasing amounts, FIG. 2B. How it is done: Immunofluorescent Cytochemistry Assay to Determine NFκB Activation.
The innate immune response dependent on RIG-I also activates the NFκB transcription factor and thus increases nuclear levels. Cultured human HeLa cells were treated with increasing amounts of compound or equivalent amounts of DMSO diluted in media for 20 hours. Positive control wells were infected with 100 HA/mL Sendai virus for an equivalent time period. NFκB was detected using, in this example, monoclonal mouse antibody specific to the p65 subunit of NFκB and a secondary antibody conjugated to DyLight 488.
as §2, §3

The subject of series [8] is human primary dendritic cells. In words: Ex vivo cytokine expression in primary dendritic cells (Luminex/MAGPIX). In kind it is cell-based. The settings on record: dendritic cells, 0, 1 or 10 μM, 24 hours, supernatant, FIG. 3. How it is done: The activity of KIN2000 in primary immune cells was assayed to determine whether KIN2000 stimulates immune responses. In this example, cultured human primary dendritic cells were treated with 0, 1, or 10 μM of KIN2000 for 24 hours. Supernatant from treated wells was isolated and tested for levels of cytokine protein. Cytokines were detected using specific antibodies conjugated to magnetic beads and a secondary antibody that reacts with Streptavidin/Phycoerythrin to produce a fluorescent signal. The bound beads were detected and quantified using the MAGPIX® instrument (LUMINEX®) in this Example, but a similar technique can also be used to measure fluorescent protein production, such as an ELISA.

“Also recorded” adds a separate entry of the source.

On to `Cn1c(=O)c2c(SCc3cccc(C(F)(F)F)c3)nc(-c3ccco3)nc2n(C)c1=O` [KIN2000], for which the “induction of IFNβ-luciferase reporter gene” value in series [1] is “dose-dependent induction”. Also, the “induction of ISG56-luciferase reporter gene” value in series [2] was “dose-dependent induction”. Moreover, in series [3], the “induction of ISG54-luciferase reporter gene” value was “dose-dependent induction”. For the same compound, the “induction of non-specific β-actin promoter (luciferase reporter)” value in series [4] was “did not induce; also recorded: does not induce”. The “cytotoxicity (MTS cell viability)” value in series [5] is listed as “no evident cytotoxicity; also recorded: did not show evident cytotoxicity”. Further, the “IRF-3 translocation to the nucleus (nuclear-cytoplasmic difference)” value in series [6] is reported as “dose dependent increase; also recorded: dose-dependent increase”. Further, the “NFκB translocation (nuclear-cytoplasmic difference)” value in series [7] was “dose dependent increase; also recorded: dose-dependent increase”. In series [8], the IL-8 expression entry was “induce expression; also recorded: dose-dependent expression”, the “MCP-1 (CCL2) expression” value was “induce expression; also recorded: dose-dependent expression”, the “MIP-1α (CCL3) expression” value is “induce expression; also recorded: dose-dependent expression” and the “MIP-1β (CCL4) expression” value was “induce expression; also recorded: dose-dependent expression”.

The values are drawn from patent publication US20160102099A1, “ANTI-VIRAL COMPOUNDS” (Kineta, Inc., priority 2011, published 2016).
